Measurements: patent publication US20230121313A1 (priority 2019, published 2023)

What was measured:
[1] = tested on: elderly subjects with TRD; conditions: human, in vivo, other: intranasal
Text: The Modified Observer's Assessment of Alertness/Sedation (MOAA/S) was used to measure treatment-emergent sedation with correlation to levels of sedation defined by the American Society of Anesthesiologists (ASA) continuum. The MOAA/S scores range from 0 (No response to painful stimulus; corresponds to ASA continuum for general anesthesia) to 5 (Readily responds to name spoken in normal tone [awake]; corresponds to ASA continuum for minimal sedation). The proportion of subjects with sedation was <4% for the esketamine group for each dosing day.

[2] = tested on: subjects with MDD at imminent risk for suicide; test: MADRS suicide item, Study […]2001; assay type: in vivo, human; conditions: 84 mg
Text: • a. Changes from baseline to Day 2 and Day 25 for the MADRS total score • b. Changes from baseline to Day 1 4-hours postdose, Day 2 and Day 25 for the MADRS Suicide Item • c. Changes from baseline to Day 1 4-hours postdose, Day 2, and Day 25 for the clinical global judgment of suicide risk from the Suicide Ideation and Behavior Assessment Tool (SIBAT) • d. Sustained response (Onset of Clinical Response) defined as at least 50% reduction from baseline in MADRS total score with onset on Day 1 that is maintained through the end of the double-blind phase (Day 25) • e. Changes from baseline to Day 1 4-hours postdose, Day 2, and Day 25 for the Beck Scale for Suicidal Ideation (BSS) • f. Changes from baseline to Day 1 4-hours postdose and Day 25 for the Beck Hopelessness Scale
Results of the change from baseline over time for the suicide item from the MADRS assessment can be found in Attachment 1.

[3] = tested on: patients with treatment-resistant depression (TRD); test: BPRS positive symptom subscale, phase 2 dose-response study in TRD; assay type: in vivo, human
Procedure: Adverse events were monitored throughout the study. Other safety assessments (i.e., laboratory tests, vital signs, physical examination) were performed at pre-specified time points. Vital signs, the Clinician Administered Dissociative States Scale (CADSS; Bremner, “Measurement of dissociative states with the clinician-administered dissociative states scale (CADSS)”, J. Traumatic Stress, 1998, 11(1):125-136), and the 4-item positive symptom subscale from the Brief Psychiatric Rating Scale (BPRS; Overall, “The Brief Psychiatric Rating Scale. Psychological Reports”, 1962, 10:799-812) were assessed pre-dose, at 40 minutes, and 2 hours post-dose.

CN[C@]1(c2ccccc2Cl)CCCCC1=O [esketamine, (S)-2-(2-chlorophenyl)-2-(methylamino)cyclohexanone]
Proportion of subjects with sedation (post dose MOAA/S score ≤3) [1]: < 4%
MADRS suicide item (Suicidal Thoughts), Med ([2]; Day 1 (DB): 4 H, LOCF, N 35): 2.0
MADRS suicide item, change from baseline, Med ([2]; Day 1 (DB): 4 H, LOCF, N 35): −3.0
MADRS suicide item (Suicidal Thoughts), Med ([2]; Day 1(DB): 4 H, N 35): 2.0
MADRS suicide item, change from baseline, Med ([2]; Day 1(DB): 4 H, N 35): −3.0
MADRS suicide item (Suicidal Thoughts), Med ([2]; Day 2(DB) LOCF, N 35): 2.0
MADRS suicide item, change from baseline, Med ([2]; Day 2(DB) LOCF, N 35): −3.0
MADRS suicide item (Suicidal Thoughts), Med ([2]; Day 2(DB), N 35): 2.0
MADRS suicide item, change from baseline, Med ([2]; Day 2(DB), N 35): −3.0
MADRS suicide item (Suicidal Thoughts), Med ([2]; Day 3(DB) LOCF, N 35): 2.0
MADRS suicide item, change from baseline, Med ([2]; Day 3(DB) LOCF, N 35): −4.0
MADRS suicide item (Suicidal Thoughts), Med ([2]; Day 3(DB), N 32): 2.0
MADRS suicide item, change from baseline, Med ([2]; Day 3(DB), N 32): −4.0
MADRS suicide item (Suicidal Thoughts), Med ([2]; Day 4(DB) LOCF, N 35): 1.0
MADRS suicide item, change from baseline, Med ([2]; Day 4(DB) LOCF, N 35): −4.0
MADRS suicide item (Suicidal Thoughts), Med ([2]; Day 4(DB), N 24): 1.0
MADRS suicide item, change from baseline, Med ([2]; Day 4(DB), N 24): −4.0
MADRS suicide item (Suicidal Thoughts), Med ([2]; Day 5(DB) LOCF, N 35): 1.0
MADRS suicide item, change from baseline, Med ([2]; Day 5(DB) LOCF, N 35): −4.0
MADRS suicide item (Suicidal Thoughts), Med ([2]; Day 5(DB), N 21): 0.0
MADRS suicide item, change from baseline, Med ([2]; Day 5(DB), N 21): −4.0
MADRS suicide item (Suicidal Thoughts), Med ([2]; Day 8(DB) LOCF, N 35): 1.0
MADRS suicide item, change from baseline, Med ([2]; Day 8(DB) LOCF, N 35): −4.0
MADRS suicide item (Suicidal Thoughts), Med ([2]; Day 8(DB), N 31): 1.0
MADRS suicide item, change from baseline, Med ([2]; Day 8(DB), N 31): −4.0
MADRS suicide item (Suicidal Thoughts), Med ([2]; Day 11(DB) LOCF, N 35): 1.0
MADRS suicide item, change from baseline, Med ([2]; Day 11(DB) LOCF, N 35): −4.0
MADRS suicide item (Suicidal Thoughts), Med ([2]; Day 11(DB), N 25): 0.0
MADRS suicide item, change from baseline, Med ([2]; Day 11(DB), N 25): −4.0
MADRS suicide item (Suicidal Thoughts), Med ([2]; Day 15(DB) LOCF, N 35): 1.0
MADRS suicide item, change from baseline, Med ([2]; Day 15(DB) LOCF, N 35): −4.0
MADRS suicide item (Suicidal Thoughts), Med ([2]; Day 15(DB), N 29): 1.0
MADRS suicide item, change from baseline, Med ([2]; Day 15(DB), N 29): −4.0
MADRS suicide item (Suicidal Thoughts), Med ([2]; Day 18(DB) LOCF, N 35): 1.0
MADRS suicide item, change from baseline, Med ([2]; Day 18(DB) LOCF, N 35): −4.0
MADRS suicide item (Suicidal Thoughts), Med ([2]; Day 18(DB), N 23): 1.0
MADRS suicide item, change from baseline, Med ([2]; Day 18(DB), N 23): −4.0
MADRS suicide item (Suicidal Thoughts), Med ([2]; Day 22(DB) LOCF, N 35): 0.0
MADRS suicide item, change from baseline, Med ([2]; Day 22(DB) LOCF, N 35): −4.0
MADRS suicide item (Suicidal Thoughts), Med ([2]; Day 22(DB), N 28): 0.0
MADRS suicide item, change from baseline, Med ([2]; Day 22(DB), N 28): −4.0
MADRS suicide item (Suicidal Thoughts), Med ([2]; Day 25(DB): 4 H, N 24): 0.0
MADRS suicide item, change from baseline, Med ([2]; Day 25(DB): 4 H, N 24): −4.5
MADRS suicide item (Suicidal Thoughts), Med ([2]; Day 25(DB): Predose LOCF, N 35): 0.0
MADRS suicide item, change from baseline, Med ([2]; Day 25(DB): Predose LOCF, N 35): −4.0
MADRS suicide item (Suicidal Thoughts), Med ([2]; Day 25(DB): Predose, N 24): 0.0
MADRS suicide item, change from baseline, Med ([2]; Day 25(DB): Predose, N 24): −4.5
MADRS suicide item (Suicidal Thoughts), Med ([2]; Day 32(FU) LOCF, N 26): 0.0
MADRS suicide item, change from baseline, Med ([2]; Day 32(FU) LOCF, N 26): −4.0
MADRS suicide item (Suicidal Thoughts), Med ([2]; Day 32(FU), N 26): 0.0
MADRS suicide item, change from baseline, Med ([2]; Day 32(FU), N 26): −4.0
MADRS suicide item (Suicidal Thoughts), Med ([2]; Day 39(FU) LOCF, N 27): 0.0
MADRS suicide item, change from baseline, Med ([2]; Day 39(FU) LOCF, N 27): −5.0
MADRS suicide item (Suicidal Thoughts), Med ([2]; Day 39(FU), N 26): 0.0
MADRS suicide item, change from baseline, Med ([2]; Day 39(FU), N 26): −5.0
MADRS suicide item (Suicidal Thoughts), Med ([2]; Day 46(FU) LOCF, N 27): 0.0
MADRS suicide item, change from baseline, Med ([2]; Day 46(FU) LOCF, N 27): −4.0
MADRS suicide item (Suicidal Thoughts), Med ([2]; Day 46(FU), N 25): 0.0
MADRS suicide item, change from baseline, Med ([2]; Day 46(FU), N 25): −4.0
MADRS suicide item (Suicidal Thoughts), Med ([2]; Day 53(FU) LOCF, N 27): 0.0
MADRS suicide item, change from baseline, Med ([2]; Day 53(FU) LOCF, N 27): −4.0
MADRS suicide item (Suicidal Thoughts), Med ([2]; Day 53(FU), N 24): 0.0
MADRS suicide item, change from baseline, Med ([2]; Day 53(FU), N 24): −5.0
MADRS suicide item (Suicidal Thoughts), Med ([2]; Day 67(FU) LOCF, N 27): 0.0
MADRS suicide item, change from baseline, Med ([2]; Day 67(FU) LOCF, N 27): −4.0
MADRS suicide item (Suicidal Thoughts), Med ([2]; Day 67(FU), N 26): 0.0
MADRS suicide item, change from baseline, Med ([2]; Day 67(FU), N 26): −4.0
MADRS suicide item (Suicidal Thoughts), Med ([2]; Day 81(FU), N 24): 0.0
MADRS suicide item, change from baseline, Med ([2]; Day 81(FU), N 24): −5.0
MADRS suicide item (Suicidal Thoughts), Med ([2]; End Point(DB), N 35): 0.0
MADRS suicide item, change from baseline, Med ([2]; End Point(DB), N 35): −4.0
MADRS suicide item (Suicidal Thoughts), Med ([2]; End Point(FU), N 27): 0.0
MADRS suicide item, change from baseline, Med ([2]; End Point(FU), N 27): −5.0
Symptoms suggestive of psychosis (BPRS-positive assessment) [3]: No participant manifested symptoms suggestive of psychosis
